In paper PMC7078479, “Sulfamoyl Heteroarylcarboxylic Acids as Promising Metallo-β-Lactamase Inhibitors for Controlling Bacterial Carbapenem Resistance” (mBio, 2020):
Entries after “also recorded” stand apart in the source; their conditions may differ. Where two headings read alike, the source gives them in different places.

Legend:
IMP-1 = biological target: T1, IMP-1 (Serratia marcescens, UniProt P52699); assay: Inhibition of IPM hydrolysis by purified IMP-1, Ki by Lineweaver-Burk plots; format: biochemical
T1 construct: made in house
Description: (§1) MBL (10 nM) was mixed with the inhibitors and incubated for 5 min at 30°C. IPM was added to reach a concentration of 150 μM, and the velocity of IPM hydrolysis was monitored at 298 nm. The assay was performed at 30°C using 10 mM HEPES (pH 7.5) buffer containing 200 mM NaCl and 50 μg/ml bovine serum albumin (BSA) for IMP-1, NDM-1, VIM-2, and SMB-1. For SFH-1 and L1, another 10 mM HEPES (pH 7.5) buffer containing 200 mM NaCl, 20 μM ZnSO4, and 50 μg/ml BSA was used.
(§2) Initial velocities (vo) were measured after varying the concentrations of IPM and inhibitors, and inverse velocities (1/vo) were plotted against inverse IPM concentrations […]. Lineweaver-Burk plots were constructed to obtain the inhibition constant (Ki) with the competitive inhibition model using the SigmaPlot 13 suite (Hulinks).

VIM-2 = biological target: T2, VIM-2 (Escherichia coli, UniProt Q5U7L7); assay: Inhibition of IPM hydrolysis by purified VIM-2, Ki by Lineweaver-Burk plots; format: biochemical; conditions: IPM as substrate, competitive model, mean of three replicates; read-out: Inhibition constant Ki VIM-2
T2 construct: made in house
Description: as §1, §2

CMY-2 = biological target: T3, CMY-2 (Klebsiella pneumoniae, UniProt Q48434); assay: Serine β-lactamase inhibition, nitrocefin hydrolysis by CMY-2; format: biochemical; conditions: nitrocefin 100 μM
T3 construct: made in house; host or cells: E. coli BL21(DE3)
Description: (§3) The serine–β-lactamases (1 nM) TLA-3, CMY-2, and OXA-48 were mixed with SFC in 100 mM phosphate buffer (pH 7.0) and incubated for 5 min at 30°C. Nitrocefin was added to reach a concentration of 100 μM, and the velocity of nitrocefin hydrolysis was monitored at 482 nm. Avibactam (MedKoo Bioscience, Morrisville, NC) was used as an inhibitor for serine–β-lactamases. The inhibitory effect of SFC against ACE was evaluated using ACE Kit-WST (Dojindo Laboratories, Kumamoto, Japan). The residual ACE activity was calculated as described in the manufacturer’s protocol as follows: [1 − (Acontrol − Asample)/(Acontrol − Abackground)] × 100. EDTA solution (Nippon Gene, Tokyo, Japan) was used as an ACE inhibitor.

[1] = biological target: T4, angiotensin-converting enzyme (ACE) (Homo sapiens, UniProt P12821); assay: ACE inhibition (ACE Kit-WST); format: biochemical; conditions: human metalloenzyme
T4 construct: purchased Dojindo Laboratories ACE Kit-WST
Description: as §3

E. coli DH5α/pBC-IMP-1 = assay: Susceptibility and checkerboard testing, IMP-1-producing E. coli; format: cell-based, Escherichia coli; conditions: for MIC: Escherichia coli
Description: (§4) MICs were determined via the microdilution method according to the CLSI guidelines ([38]). In brief, 5 × 10^4 bacterial cells were inoculated in 100 μl of cation-adjusted Mueller-Hinton broth (Becton, Dickinson and Company, Franklin Lakes, NJ) containing the β-lactams and appropriately diluted inhibitors. The final concentration of DMSO was maintained at 2% in the assays. The tested plates were then incubated at 35°C for 16 to 20 h. The MIC value was determined as the lowest concentration of tested β-lactams where no bacterial growth was visibly observed. The optical density at 600 nm (OD600) value was measured using a plate reader for drawing the heat maps. The FIC index value was calculated using the following equation: FIC index=MIC of β-lactam with inhibitor/MIC of β-lactam alone+MIC of inhibitor with β-lactam/MIC of inhibitor alone
Unless noted otherwise, the FIC index was defined as the lowest value among all obtained values. The synergistic effect was defined as the effect observed when the FIC index value was ≤0.5.

[2] = tested on: P. aeruginosa PAO1/pME-NDM-1; assay: Susceptibility testing, NDM-1-producing P. aeruginosa PAO1; format: cell-based; conditions: Pseudomonas aeruginosa
Description: as §4

[3] = tested on: P. aeruginosa PAO1/pME-VIM-2; assay: Susceptibility testing, VIM-2-producing P. aeruginosa PAO1; format: cell-based; conditions: Pseudomonas aeruginosa
Description: as §4

[4] = tested on: IMP-1-producing E. coli NUBL-24; assay: Time-kill assay; format: cell-based, Escherichia coli; conditions: 10 μg/ml SFC added to 1 μg/ml MPM, 6 h
Description: The initial density of E. coli NUBL-24 (blaIMP-1) (MPM MIC, 8 μg/ml) was adjusted to approximately 5 × 10^6 CFU/ml. Either MPM (1 μg/ml) alone or SFC (10 μg/ml) alone or a combination of the two was added to the bacterial solution, and then incubation was performed at 37°C. LB broth containing only bacteria was used as a control. At 0, 2, 4, 6, and 24 h after adding the agents, an aliquot of bacterial culture was removed, diluted, and spotted on LB agar plates to count the viable bacterial cells. The detection limit was set at 200 CFU/ml.

HeLa cells = assay: Toxicity assay in HeLa cells (CellTiter 96 AQueous); format: cell-based; conditions: 24 h exposure, cell proliferation assay
Description: HeLa cells were seeded at 5,000 cells per well in 96-well plates and cultured in Dulbecco’s modified Eagle’s medium (DMEM) (Wako Pure Chemical Industries, Osaka, Japan). After incubation for 24 h at 37°C with 5% CO2, staurosporine (Sigma-Aldrich, St. Louis, MO) and SHCs were added to each well (final DMSO concentration was 1%), after which the plates were incubated for another 24 h. Twenty microliters of tetrazolium solution, obtained from a CellTiter 96 AQueous one-solution cell proliferation assay kit (Promega, Madison, WI), was added into each well. The plate was incubated for 3 h under the same conditions mentioned above, and the absorbance at 490 nm was measured for the determination of cell proliferation.

[5] = tested on: IMP-1-producing E. coli NUBL-24; assay: Mouse infection model, E. coli NUBL-24, survival; format: in vivo, mice
Description: All experiments were approved by the Nagoya University Animal Ethics Committee, and all experiments were performed in a manner that minimized animal suffering. Male CD1 mice (4 weeks old; 20 to 25 g body weight) were purchased from Charles River Laboratories Japan (Yokohama, Japan). E. coli NUBL-24 (blaIMP-1) and K. pneumoniae MS5674 (blaNDM-1 and blaVIM-1) strains were inoculated on LB agar plates and grown for 18 h at 37°C. Bacteria were then scraped from the plates, and their concentration was adjusted to 5 × 10^6 to 1 × 10^7 CFU in saline solution containing 5% mucin; this solution was then i.p. injected into the mice. At 1 and 3 h after infection, saline solution, MPM, inhibitors, and a combination of MPM and inhibitor were i.p. injected. Mice were monitored for 7 days to formulate survival curves, after which they were euthanized by CO2 asphyxiation.

E. coli = assay: Growth inhibition by inhibitor alone; format: cell-based, Escherichia coli; conditions: at least at 128 μg/ml
Description: as §4

[6] = PAO1, read-out: MIC of MPM + inhibitor (10 μg/ml)
[7] = PAO1, read-out: MIC of MPM + inhibitor (50 μg/ml)

T3 sequence (Q48434 21-381, species assumed): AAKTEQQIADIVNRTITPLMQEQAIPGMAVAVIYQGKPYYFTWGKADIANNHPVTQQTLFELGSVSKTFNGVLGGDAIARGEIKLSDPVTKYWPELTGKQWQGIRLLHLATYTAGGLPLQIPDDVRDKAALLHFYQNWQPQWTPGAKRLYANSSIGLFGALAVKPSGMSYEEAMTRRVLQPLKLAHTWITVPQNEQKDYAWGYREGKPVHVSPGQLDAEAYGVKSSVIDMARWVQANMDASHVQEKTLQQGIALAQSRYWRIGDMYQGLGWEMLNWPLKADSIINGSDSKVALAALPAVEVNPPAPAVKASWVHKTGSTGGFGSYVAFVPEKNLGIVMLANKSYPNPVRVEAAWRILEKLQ
T4 sequence (P12821 30-1306): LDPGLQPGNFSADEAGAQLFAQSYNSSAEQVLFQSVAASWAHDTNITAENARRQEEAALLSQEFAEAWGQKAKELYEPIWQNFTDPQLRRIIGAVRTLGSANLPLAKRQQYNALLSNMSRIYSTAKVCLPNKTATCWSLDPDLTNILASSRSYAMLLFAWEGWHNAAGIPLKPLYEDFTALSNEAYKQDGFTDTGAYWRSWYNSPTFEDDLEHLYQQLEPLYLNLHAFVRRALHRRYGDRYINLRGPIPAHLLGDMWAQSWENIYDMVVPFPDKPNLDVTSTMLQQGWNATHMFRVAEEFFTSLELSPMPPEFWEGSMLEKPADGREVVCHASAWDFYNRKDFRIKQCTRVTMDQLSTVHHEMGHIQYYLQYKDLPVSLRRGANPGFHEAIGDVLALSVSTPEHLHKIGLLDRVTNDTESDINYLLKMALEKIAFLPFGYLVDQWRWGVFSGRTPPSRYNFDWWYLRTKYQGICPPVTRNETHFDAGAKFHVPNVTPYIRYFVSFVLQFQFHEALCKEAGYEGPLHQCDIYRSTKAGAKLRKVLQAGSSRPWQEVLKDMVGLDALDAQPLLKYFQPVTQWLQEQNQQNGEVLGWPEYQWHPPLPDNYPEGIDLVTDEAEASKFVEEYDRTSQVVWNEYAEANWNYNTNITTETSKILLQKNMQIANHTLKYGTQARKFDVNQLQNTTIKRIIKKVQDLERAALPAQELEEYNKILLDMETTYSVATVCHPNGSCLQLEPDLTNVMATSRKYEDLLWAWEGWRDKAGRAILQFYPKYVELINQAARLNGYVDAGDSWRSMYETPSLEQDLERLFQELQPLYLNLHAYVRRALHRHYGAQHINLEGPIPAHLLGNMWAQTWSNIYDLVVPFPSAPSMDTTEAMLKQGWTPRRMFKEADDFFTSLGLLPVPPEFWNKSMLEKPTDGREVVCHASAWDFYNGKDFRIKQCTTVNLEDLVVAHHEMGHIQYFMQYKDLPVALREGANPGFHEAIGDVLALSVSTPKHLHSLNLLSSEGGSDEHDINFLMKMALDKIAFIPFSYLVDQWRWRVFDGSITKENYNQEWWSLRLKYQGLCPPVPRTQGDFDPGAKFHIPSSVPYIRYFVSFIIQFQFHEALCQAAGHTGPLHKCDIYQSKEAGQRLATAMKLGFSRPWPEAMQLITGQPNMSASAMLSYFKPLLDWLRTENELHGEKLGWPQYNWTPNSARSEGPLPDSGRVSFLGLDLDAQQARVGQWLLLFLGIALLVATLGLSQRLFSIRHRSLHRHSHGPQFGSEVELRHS
T1 sequence (P52699 19-246 limits assumed): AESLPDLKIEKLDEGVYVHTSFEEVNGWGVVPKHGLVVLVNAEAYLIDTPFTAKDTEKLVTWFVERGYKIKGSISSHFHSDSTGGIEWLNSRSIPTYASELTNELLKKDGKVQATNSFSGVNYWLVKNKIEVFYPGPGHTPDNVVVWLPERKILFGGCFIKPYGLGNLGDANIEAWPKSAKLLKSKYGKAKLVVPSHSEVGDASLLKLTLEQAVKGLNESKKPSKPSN

Cc1oc(C)c(S(N)(=O)=O)c1C(=O)O [SFC, 2,5-dimethyl-4-sulfamoylfuran-3-carboxylic acid]
Ki (IMP-1): 220 nM | Ki (VIM-2): 2810 nM | Inhibitory effect against CMY-2 (class C) (CMY-2): nonexistent or insufficient | Inhibitory effect on ACE [1]: no inhibitory effect | MIC meropenem + 2 μg/mL compound (E. coli DH5α/pBC-IMP-1; E. coli DH5α/pBC-IMP-1): 0.063 µg/mL | Reduction in MPM MIC (E. coli DH5α/pBC-IMP-1; E. coli DH5α/pBC-IMP-1, 2 μg/ml compound): 16 fold | Reduction in MPM MIC (E. coli DH5α/pBC-IMP-1; E. coli DH5α/pBC-IMP-1, 10 μg/ml compound): 16 fold | MIC (E. coli DH5α/pBC-IMP-1; read-out: MIC of MPM + inhibitor (8 μg/ml)): 0.031 µg/mL | MIC (E. coli DH5α/pBC-IMP-1; read-out: MIC of MPM + inhibitor (32 μg/ml)): 0.031 µg/mL | FIC index (E. coli DH5α/pBC-IMP-1; checkerboard with MPM, E. coli DH5α/pBC-IMP-1, lowest value): 0.06 | MIC [2, 6]: 4 µg/mL | MIC [2, 7]: 4 µg/mL | MIC [3, 6]: 32 µg/mL | MIC [3, 7]: 16 µg/mL | Reduction of bacterial population [4]: more than 1,000 fold | Toxicity in HeLa cells (HeLa cells): very low toxicity; also recorded: low toxicity | Mice rescued from death at the endpoint ([5]; MPM (0.2 mg/kg)-SFC (100 mg/kg) combination therapy, i.p., 7 days following infection): 90% | Rescue of infected mice by monotherapy ([5]; SFC 100 mg/kg or MPM 0.2 mg/kg i.p. at 1 and 3 h after infection, within 48 h): failed to rescue mice | Growth inhibition by SFC alone (E. coli): did not show growth inhibition
